Calls of active or inactive are those of the source.
Experiments:
Major prion protein = Major prion protein (Homo sapiens, UniProt P04156); type: functional, cell-based
cells [1] = assay: cells
[2] = Luminescence-based cell-based high throughput dose response assay to identify activators of the DAF-12 from the parasite S. stercoralis (ssDAF-12).; type: functional
[3] = target: T1, Oxysterols receptor LXR-beta (Homo sapiens, UniProt P55055); assay: LXR agonists, Gal4 luciferase reporter, dose response, counter-screen for ssDAF-12 agonist project, cell-based, luminescence, HEK293, S. stercoralis campaign (AID 720737); type: functional; conditions: read-out: IC50 (the source's name)
T1 sequence (P55055 whole entry): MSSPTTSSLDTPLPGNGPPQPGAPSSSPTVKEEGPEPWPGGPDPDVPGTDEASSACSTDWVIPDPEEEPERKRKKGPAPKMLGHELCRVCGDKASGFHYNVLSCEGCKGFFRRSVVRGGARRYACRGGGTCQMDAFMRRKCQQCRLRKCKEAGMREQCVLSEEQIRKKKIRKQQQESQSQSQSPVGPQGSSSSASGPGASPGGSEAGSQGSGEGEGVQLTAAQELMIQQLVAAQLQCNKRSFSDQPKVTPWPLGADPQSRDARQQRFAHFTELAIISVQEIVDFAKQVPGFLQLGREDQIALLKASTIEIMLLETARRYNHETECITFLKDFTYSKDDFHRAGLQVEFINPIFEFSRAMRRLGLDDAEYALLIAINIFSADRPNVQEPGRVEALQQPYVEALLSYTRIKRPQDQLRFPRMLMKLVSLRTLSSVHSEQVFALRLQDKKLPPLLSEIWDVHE

[4] = growth suppression of PTEN-null colon cells, dose response, cell-based, HCT116 PTEN knockout (AID 1047); type: functional;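 further: HCT116 colon tumor cells with PTEN knocked out; cells exposed to compound for 60 hours before readout; potency for loss of cell viability measured by luminescence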
[5] = growth suppression of beta-catenin-knockout colon cells, dose response, cell-based, HCT116, human colon tumor (AID 1045); type: functional;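 further: HCT116 colon tumor cells with beta catenin knocked out; cells exposed to compound for 60 hours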
[6] = Artemis endonuclease inhibitor potency, dose response, biochemical, fluorescence intensity (AID 720701); type: functional;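 further: Artemis endonuclease enzyme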
[7] = microbe, parasite or virus in culture; type: functional; conditions: Mycobacterium tuberculosis
[8] = THP-1 cell cytotoxicity, dose response, cytotoxicity control for non-replicating M. tuberculosis project (AID 489025); type: functional
cells [9] = type: functional
[10] = target: T2, Replicative DNA helicase DnaB (Mycobacterium tuberculosis, UniProt P9WMR3); assay: DnaB intein splicing inhibitors, dose response, biochemical, cell-free fluorescence (AID 449749); type: functional
T2 sequence (P9WMR3 whole entry): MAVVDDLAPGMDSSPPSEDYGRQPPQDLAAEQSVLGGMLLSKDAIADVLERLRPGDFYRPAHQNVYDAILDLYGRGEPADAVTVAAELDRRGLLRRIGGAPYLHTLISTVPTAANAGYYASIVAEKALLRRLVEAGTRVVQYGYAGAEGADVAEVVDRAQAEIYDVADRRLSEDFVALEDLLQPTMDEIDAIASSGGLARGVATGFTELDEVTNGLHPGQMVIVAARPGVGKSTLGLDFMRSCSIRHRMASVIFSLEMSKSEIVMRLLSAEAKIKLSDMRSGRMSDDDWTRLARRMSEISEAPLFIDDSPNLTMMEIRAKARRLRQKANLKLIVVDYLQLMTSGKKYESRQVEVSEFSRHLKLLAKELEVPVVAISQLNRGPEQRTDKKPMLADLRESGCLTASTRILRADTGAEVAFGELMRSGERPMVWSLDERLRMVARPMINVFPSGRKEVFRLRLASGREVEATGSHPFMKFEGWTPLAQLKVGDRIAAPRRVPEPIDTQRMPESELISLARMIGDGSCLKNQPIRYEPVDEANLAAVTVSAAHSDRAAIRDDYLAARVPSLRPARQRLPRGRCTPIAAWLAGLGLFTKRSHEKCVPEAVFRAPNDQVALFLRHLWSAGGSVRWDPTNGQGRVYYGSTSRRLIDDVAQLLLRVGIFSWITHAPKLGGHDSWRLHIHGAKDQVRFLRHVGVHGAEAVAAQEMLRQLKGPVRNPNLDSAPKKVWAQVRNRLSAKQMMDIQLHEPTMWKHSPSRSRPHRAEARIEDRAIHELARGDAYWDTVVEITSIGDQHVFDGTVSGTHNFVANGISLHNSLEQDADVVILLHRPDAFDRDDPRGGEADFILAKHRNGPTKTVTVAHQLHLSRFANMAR

Protein RecA = target: T3, Protein RecA (Mycobacterium tuberculosis, UniProt P9WHJ3); assay: Fluorescence Cell-Free Homogeneous Dose Retest to Identify Inhibitors of RecA-Intein Splicing Activity. [Related pubchem assays (depositor defined):AID2097, AID2223, AID489010, AID492950]; type: functional
T3 sequence (P9WHJ3 whole entry): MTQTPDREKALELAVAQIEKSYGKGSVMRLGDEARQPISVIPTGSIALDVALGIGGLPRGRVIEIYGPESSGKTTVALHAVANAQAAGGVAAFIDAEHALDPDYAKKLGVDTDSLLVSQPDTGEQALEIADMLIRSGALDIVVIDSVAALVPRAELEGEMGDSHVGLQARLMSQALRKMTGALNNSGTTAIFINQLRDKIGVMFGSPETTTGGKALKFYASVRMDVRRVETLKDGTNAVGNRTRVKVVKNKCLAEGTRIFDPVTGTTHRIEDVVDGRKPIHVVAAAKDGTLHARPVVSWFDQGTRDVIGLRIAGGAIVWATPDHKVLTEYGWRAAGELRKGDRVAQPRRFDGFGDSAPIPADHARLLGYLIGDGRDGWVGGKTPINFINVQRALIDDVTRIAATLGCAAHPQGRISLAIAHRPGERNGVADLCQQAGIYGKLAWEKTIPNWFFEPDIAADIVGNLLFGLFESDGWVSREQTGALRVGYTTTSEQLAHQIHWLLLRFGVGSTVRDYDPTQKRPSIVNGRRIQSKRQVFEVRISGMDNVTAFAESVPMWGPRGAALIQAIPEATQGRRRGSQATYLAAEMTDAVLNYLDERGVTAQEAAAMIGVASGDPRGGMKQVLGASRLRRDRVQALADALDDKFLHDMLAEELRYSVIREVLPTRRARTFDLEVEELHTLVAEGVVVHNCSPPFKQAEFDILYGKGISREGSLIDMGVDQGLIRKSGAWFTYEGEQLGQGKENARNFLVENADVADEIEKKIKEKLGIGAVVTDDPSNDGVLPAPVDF

[11] = target: 1-phosphatidylinositol 4,5-bisphosphate phosphodiesterase gamma-1 (Homo sapiens, UniProt P19174); assay: Counterscreen for inhibitors of phospholipase C isozymes (PLC-B3): Fluorescence-based biochemical high throughput dose response assay to identify inhibitors of phospholipase C isozymes (PLC-gamma1).
[12] = target: 1-phosphatidylinositol 4,5-bisphosphate phosphodiesterase beta-3 (Homo sapiens, UniProt Q01970); assay: Fluorescence-based biochemical high throughput dose response assay to identify inhibitors of phospholipase C isozymes (PLC-B3).
[13] = target: Tyrosyl-DNA phosphodiesterase 2 (Homo sapiens, UniProt O95551); assay: human TDP2 enzyme inhibitors, dose response, biochemical, epi absorbance, IC50 (AID 743297)
[14] = target: NAD-dependent protein deacylase sirtuin-5, mitochondrial (Homo sapiens, UniProt Q9NXA8); assay: SIRT5 deacylase inhibitors, dose response, biochemical, fluorescence imaging, cherry-pick, set 6 (AID 720597)
[15] = THP-1 cell cytotoxicity, dose response, cytotoxicity control for Vif-APOBEC3G degradation inhibitor project, THP-1 cells (AID 1117359); type: functional; conditions: Human immunodeficiency virus 1, THP-1
Paired box protein Pax-8 = Paired box protein Pax-8 (Homo sapiens, UniProt Q06710); assay: inhibitors of PAX8-driven TPO luciferase reporter, dose response, RMG-I cells, cherry-pick (AID 687027); type: functional, cell-based;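 further: luciferase reporter driven by Pax8 target thyroperoxidase promoter measured by SteadyGlo luminescence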
[16] = A2780 ovarian cancer cell cytotoxicity, dose response, cytotoxicity control, plate reader, dry powder samples (AID 743046); type: functional, cell-based
[17] = NIH:OVCAR-3 ovarian cancer cell cytotoxicity, dose response, PAX8 inhibitor project, plate reader, dry powder samples (AID 743044); type: functional, cell-based
[18] = IGROV1 ovarian cancer cell cytotoxicity, dose response, PAX8 inhibitor project, plate reader, dry powder samples (AID 743043); type: functional, cell-based; conditions: IGROV-1
[19] = non-specific cell cytotoxicity, dose response, cytotoxicity control for PAX8 inhibitor project, plate reader, dry powder samples (AID 743021); type: functional, cell-based
[20] = cytotoxicity in OVCAR8 ovarian cancer cells, dose response, PAX8 project, cell-based, plate reader, dry powder samples (AID 743197); type: functional; conditions: OVCAR-8
[21] = HepG2 cell cytotoxicity, dose response, cytotoxicity control, ATP luminescence, cherry-pick, set 6 (AID 1053125); type: functional, cell-based
[22] = A549 cell cytotoxicity, dose response, cytotoxicity control, plate reader, cherry-pick, antagonist series (AID 743412); type: functional, cell-based
[23] = HepG2 cell cytotoxicity, dose response, cytotoxicity control, plate reader, cherry-pick, antagonist series (AID 743416); type: functional, cell-based
[24] = LGR2 antagonists, dose response, cell-based, HEK293, CRE-luciferase reporter, cherry pick (AID 743342); type: functional
[25] = MC4R antagonists, dose response, counter-screen for LGR2 antagonist project, cell-based, plate reader, cherry pick (AID 743444); type: functional;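 further: transfected HEK 293 cells stimulated with alpha-MSH peptide; potency of inhibitors of the alpha-MSH evoked signal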
[26] = A375 melanoma cell viability loss, dose response, counter-screen for MITF inhibitor project, CellTiter-Glo luminescence, dry powder, set 4 (AID 624364); type: functional, cell-based; conditions: A-375;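 further: A375 melanoma cells are MITF independent so this is a counter screen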
[27] = A375 melanoma cell cytotoxicity, dose response, counter-screen for MITF inhibitor project, CellTiter-Glo luminescence, dry powder, set 2 (AID 624489); type: functional, cell-based; conditions: A-375;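 further: actives are compounds lowering A375 viability meaning general cytotoxicity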
NS3 = NS3 (Hepatitis C virus, UniProt A3EZJ3); assay: HCV NS3 helicase inhibitor potency, dose response, biochemical, fluorescence polarization, ChemBridge library (AID 743264)
Fatty acid synthase = Fatty acid synthase (Homo sapiens, UniProt P49327); assay: FAS thioesterase domain inhibitors, SAR follow-up, biochemical, endpoint fluorescence intensity, powder samples (AID 652164); type: functional
[28] = Late stage assay provider results from the probe development effort to identify inhibitors of the Plasmodium falciparum M18 Aspartyl Aminopeptidase (M18AAP): radiolabel-based cell-based dose response assay to identify compounds that inhibit P. falciparum growth in RBCs, Set 2..; type: functional
[29] = target: RNA-editing ligase 1, mitochondrial (Trypanosoma brucei brucei, UniProt P86926); assay: TbREL1 ligase inhibitors, dose response, biochemical, fluorescence, Trypanosoma brucei (AID 1117295); type: functional
[30] = A549 cell cytotoxicity, dose response, cytotoxicity control, plate reader, dry powder, set 6 (AID 743312); type: functional, cell-based
[31] = MITF Orthogonal Assay: SK-MEL-5 CTG Assay Measured in Cell-Based System Using Plate Reader - 2084-02_Inhibitor_Dose_DryPowder_Activity_Set7.; type: functional
[32] = MITF: Counter assay: A375 proliferation Measured in Cell-Based System Using Plate Reader - 2084-03_Inhibitor_Dose_DryPowder_Activity_Set8.; type: functional; conditions: A-375
[33] = TRPM1 promoter luciferase reporter signal decrease, dose response, MITF inhibitor project, cell-based, SK-MEL-5, dry powder, set 8 (AID 624430); type: functional

NS3, sequence (A3EZJ3 whole entry, the tested form may be a part): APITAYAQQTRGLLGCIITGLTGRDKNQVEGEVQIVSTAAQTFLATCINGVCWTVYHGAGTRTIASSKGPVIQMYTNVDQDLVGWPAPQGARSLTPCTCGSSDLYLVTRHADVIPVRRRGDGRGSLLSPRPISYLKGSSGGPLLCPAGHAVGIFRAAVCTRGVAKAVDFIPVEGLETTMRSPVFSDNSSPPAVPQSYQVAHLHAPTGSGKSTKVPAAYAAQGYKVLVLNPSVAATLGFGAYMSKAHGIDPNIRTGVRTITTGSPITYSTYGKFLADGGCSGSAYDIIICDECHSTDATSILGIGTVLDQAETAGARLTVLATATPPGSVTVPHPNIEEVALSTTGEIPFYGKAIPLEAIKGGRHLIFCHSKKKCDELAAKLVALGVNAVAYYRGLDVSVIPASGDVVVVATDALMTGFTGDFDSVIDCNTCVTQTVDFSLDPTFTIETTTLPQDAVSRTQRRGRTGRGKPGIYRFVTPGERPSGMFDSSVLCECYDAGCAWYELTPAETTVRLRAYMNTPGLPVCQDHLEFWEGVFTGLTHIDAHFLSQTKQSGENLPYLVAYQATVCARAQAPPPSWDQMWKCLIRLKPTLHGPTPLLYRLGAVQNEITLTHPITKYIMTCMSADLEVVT
Fatty acid synthase, sequence (P49327 whole entry, the tested form may be a part): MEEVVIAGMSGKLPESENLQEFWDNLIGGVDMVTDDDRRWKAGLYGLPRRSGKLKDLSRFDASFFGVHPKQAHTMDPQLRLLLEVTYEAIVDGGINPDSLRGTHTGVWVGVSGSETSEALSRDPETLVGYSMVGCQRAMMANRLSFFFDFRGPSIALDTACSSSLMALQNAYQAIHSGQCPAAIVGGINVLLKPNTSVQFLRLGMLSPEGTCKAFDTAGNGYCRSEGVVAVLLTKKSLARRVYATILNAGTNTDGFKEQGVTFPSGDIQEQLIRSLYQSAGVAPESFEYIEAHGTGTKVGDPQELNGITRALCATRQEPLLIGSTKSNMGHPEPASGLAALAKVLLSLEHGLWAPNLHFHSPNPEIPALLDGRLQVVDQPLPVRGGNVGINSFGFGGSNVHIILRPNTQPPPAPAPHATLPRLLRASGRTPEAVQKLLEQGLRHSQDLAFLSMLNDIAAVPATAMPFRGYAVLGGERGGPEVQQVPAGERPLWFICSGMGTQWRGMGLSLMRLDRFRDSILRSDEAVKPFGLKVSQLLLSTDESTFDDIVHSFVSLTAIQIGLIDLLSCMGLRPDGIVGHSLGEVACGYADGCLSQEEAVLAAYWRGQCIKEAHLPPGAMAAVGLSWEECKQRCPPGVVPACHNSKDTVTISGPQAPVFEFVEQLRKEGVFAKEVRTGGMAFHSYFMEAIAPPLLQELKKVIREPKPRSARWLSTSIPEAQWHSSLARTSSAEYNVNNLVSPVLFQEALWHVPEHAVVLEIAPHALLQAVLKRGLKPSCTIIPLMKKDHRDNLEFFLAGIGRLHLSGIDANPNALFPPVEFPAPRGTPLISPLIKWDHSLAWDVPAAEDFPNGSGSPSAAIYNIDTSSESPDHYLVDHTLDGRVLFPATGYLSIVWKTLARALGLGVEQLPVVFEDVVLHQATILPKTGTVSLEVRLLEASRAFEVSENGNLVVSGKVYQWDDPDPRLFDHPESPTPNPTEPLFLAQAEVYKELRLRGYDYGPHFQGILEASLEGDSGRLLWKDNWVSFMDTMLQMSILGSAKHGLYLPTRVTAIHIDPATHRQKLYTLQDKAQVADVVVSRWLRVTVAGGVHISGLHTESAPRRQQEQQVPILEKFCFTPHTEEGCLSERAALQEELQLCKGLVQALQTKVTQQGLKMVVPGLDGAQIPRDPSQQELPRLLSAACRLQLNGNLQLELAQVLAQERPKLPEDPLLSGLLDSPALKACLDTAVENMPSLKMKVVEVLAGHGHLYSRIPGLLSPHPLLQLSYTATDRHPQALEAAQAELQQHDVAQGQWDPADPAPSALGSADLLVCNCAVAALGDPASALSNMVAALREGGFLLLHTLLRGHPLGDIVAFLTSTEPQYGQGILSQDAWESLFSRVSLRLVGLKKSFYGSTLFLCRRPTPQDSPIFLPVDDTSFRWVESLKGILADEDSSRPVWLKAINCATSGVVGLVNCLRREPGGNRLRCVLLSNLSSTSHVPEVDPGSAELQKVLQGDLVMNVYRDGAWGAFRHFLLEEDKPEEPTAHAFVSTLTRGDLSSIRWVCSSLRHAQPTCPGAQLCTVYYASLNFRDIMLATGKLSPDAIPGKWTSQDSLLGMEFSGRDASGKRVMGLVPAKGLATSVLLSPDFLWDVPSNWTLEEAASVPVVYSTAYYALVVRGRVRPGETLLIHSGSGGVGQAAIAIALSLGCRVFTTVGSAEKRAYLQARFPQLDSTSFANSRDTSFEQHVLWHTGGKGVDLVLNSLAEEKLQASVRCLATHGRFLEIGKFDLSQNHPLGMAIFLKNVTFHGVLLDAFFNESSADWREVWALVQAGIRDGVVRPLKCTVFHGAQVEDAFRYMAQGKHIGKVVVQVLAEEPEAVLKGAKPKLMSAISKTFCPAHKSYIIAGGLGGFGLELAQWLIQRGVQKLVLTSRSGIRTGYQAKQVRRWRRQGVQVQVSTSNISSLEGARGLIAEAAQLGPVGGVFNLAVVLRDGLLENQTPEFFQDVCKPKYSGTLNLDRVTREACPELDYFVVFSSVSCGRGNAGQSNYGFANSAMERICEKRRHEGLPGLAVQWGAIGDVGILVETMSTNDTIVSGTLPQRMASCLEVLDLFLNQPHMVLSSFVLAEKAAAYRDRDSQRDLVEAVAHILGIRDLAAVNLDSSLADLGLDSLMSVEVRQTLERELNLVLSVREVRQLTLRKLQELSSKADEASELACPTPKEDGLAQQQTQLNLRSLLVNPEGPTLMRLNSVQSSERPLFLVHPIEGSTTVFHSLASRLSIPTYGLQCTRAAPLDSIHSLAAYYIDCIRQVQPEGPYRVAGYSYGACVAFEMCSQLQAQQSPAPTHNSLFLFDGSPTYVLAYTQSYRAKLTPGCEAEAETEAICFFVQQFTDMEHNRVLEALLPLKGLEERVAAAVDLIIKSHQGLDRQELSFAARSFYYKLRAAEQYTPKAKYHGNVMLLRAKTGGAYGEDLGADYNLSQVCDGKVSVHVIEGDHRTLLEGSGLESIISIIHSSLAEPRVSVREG
1-phosphatidylinositol 4,5-bisphosphate phosphodiesterase gamma-1, sequence (P19174 whole entry): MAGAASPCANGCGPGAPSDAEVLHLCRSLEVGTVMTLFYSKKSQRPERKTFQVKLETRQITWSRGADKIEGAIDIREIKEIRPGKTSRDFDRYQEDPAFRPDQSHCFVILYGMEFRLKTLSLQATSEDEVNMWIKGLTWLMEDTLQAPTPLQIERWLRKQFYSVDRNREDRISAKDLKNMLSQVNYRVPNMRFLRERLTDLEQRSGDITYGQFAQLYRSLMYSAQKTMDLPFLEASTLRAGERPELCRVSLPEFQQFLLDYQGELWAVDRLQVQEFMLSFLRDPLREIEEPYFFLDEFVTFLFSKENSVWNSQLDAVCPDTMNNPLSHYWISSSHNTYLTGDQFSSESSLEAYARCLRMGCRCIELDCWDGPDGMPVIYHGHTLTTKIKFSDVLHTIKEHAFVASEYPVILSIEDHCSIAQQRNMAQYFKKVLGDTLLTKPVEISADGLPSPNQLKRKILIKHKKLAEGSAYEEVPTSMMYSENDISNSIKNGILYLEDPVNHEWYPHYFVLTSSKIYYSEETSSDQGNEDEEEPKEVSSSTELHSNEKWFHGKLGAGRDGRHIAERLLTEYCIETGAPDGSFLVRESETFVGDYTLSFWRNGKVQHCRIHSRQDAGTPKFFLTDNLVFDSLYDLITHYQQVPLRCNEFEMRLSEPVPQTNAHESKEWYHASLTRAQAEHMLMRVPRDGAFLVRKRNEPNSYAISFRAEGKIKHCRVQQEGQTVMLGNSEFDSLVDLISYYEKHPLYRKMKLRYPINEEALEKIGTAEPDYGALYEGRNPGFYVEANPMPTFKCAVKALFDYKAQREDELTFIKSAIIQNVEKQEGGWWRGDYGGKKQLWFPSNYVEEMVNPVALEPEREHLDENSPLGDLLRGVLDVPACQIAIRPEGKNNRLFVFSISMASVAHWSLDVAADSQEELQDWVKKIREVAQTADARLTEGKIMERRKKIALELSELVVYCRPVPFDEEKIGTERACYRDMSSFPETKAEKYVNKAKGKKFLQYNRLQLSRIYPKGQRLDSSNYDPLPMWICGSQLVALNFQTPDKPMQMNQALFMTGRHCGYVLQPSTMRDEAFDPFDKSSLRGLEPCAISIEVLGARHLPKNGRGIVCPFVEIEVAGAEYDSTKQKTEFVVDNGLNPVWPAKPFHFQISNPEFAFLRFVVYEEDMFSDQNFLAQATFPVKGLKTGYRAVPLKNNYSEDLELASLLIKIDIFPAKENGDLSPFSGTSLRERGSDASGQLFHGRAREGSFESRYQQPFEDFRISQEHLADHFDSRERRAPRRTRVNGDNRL
NAD-dependent protein deacylase sirtuin-5, mitochondrial, sequence (Q9NXA8 whole entry): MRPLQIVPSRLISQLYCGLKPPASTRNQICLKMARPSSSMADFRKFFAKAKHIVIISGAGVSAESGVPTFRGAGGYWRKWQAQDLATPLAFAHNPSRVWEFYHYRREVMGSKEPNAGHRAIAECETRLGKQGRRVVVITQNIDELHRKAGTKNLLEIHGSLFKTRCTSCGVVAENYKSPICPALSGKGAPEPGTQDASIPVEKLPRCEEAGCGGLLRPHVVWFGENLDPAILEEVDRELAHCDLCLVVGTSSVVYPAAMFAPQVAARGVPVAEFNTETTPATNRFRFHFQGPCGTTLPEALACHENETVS
Tyrosyl-DNA phosphodiesterase 2, sequence (O95551 whole entry): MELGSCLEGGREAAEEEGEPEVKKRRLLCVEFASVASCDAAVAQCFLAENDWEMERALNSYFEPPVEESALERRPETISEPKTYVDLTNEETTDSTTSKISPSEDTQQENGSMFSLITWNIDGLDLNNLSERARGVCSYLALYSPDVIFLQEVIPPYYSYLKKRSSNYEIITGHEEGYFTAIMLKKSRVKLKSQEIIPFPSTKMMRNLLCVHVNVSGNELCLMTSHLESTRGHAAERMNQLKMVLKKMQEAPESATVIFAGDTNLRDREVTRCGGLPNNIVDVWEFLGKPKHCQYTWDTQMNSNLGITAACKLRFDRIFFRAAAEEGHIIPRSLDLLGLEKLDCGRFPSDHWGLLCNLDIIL

## c1ccc2sc(Nc3nc4cc5c(cc4s3)OCO5)nc2c1
Major prion protein
  IC50: 8.57 µM (active)
Cells [1]
  IC50: > 138 µM (inactive)

## O=C(CCn1c(=S)oc2ccccc21)NC1CCCCC1
[2]
  IC50: > 67.6 µM (inactive)
[3]
  EC50: > 67.6 µM (inactive)

## COc1ccc(Nc2nc(Nc3ccc(OC)cc3)nc(SC3=NCCS3)n2)cc1
[4]
  EC50: 40.1 µM (active)
[5]
  EC50: 71.1 µM (active)
[6]
  IC50: 1.68 µM (active)

## Cc1c([N+](=O)[O-])cnc(Sc2ccccc2)c1[N+](=O)[O-]
[7]
  CC50: 30.3 µM (active)
[8]
  CC50: 26.1 µM (active)
Cells [9]
  IC50: 7.94 µM (active)
[10]
  AC50: 0.181 µM (active)
Protein RecA
  EC50: 0.0479 µM (active)
[11]
  IC50: > 122 µM (inactive)
[12]
  IC50: > 122 µM (inactive)

## CCOc1ccc(NC2=CC(=O)C(=O)c3ccccc32)cc1
[13]
  IC50: > 128 µM (inactive)

## Cc1noc(C)c1S(=O)(=O)Nc1ccc2c(c1)C(=O)N([C@@H](C)CO)C[C@H](C)[C@@H](CN(C)Cc1ccc(C(F)(F)F)cc1)OCCCC[C@H](C)O2
[14]
  AC50: 12.2 µM (active)
[15]
  CC50: 16.7 µM (active)

## C[C@@H]1CN([C@H](C)CO)C(=O)c2cc(NC(=O)Nc3ccc(C(F)(F)F)cc3)ccc2O[C@@H](C)CCCCO[C@@H]1CN(C)Cc1ccccc1
Paired box protein Pax-8
  AC50: 6.4 µM (active)
[16]
  AC50: 22.3 µM (active)
[17]
  AC50: 23 µM (active)
[18]
  AC50: 40.2 µM (active)
[19]
  AC50: 68 µM (active)
[20]
  AC50: 21.5 µM (active)

## Cc1c(C(=O)NCc2ccc3c(c2)OCCO3)sc(=O)n1Cc1ccccc1F
[21]
  AC50: > 52 µM (inactive)

## C[C@H](CO)N1C[C@H](C)[C@H](CN(C)C(=O)Nc2ccc(C(F)(F)F)cc2)OCCCC[C@H](C)Oc2ccc(NC(=O)NC3CCCCC3)cc2C1=O
[22]
  AC50: > 52 µM (inactive)
[23]
  AC50: > 52 µM (inactive)
[24]
  AC50: 8.74 µM (active)
[25]
  AC50: 0.898 µM (active)

## CCN1CCN(C2=C(NC(=O)c3ccc(Br)cc3)C(=O)c3ccccc3C2=O)CC1
[26]
  AC50: 15.2 µM (active)
[27]
  AC50: 6.71 µM (active)

## CC1=C(C#N)c2nc(N)c(C#N)c(C)c2C1=Cc1ccc(-c2cccc(C(=O)O)c2)o1
NS3
  IC50: 143 µM (active)

## CCCCC(=O)Nc1nc(-c2cccc(S(=O)(=O)N3CCOCC3)c2)cs1
Fatty acid synthase
  IC50: 20.2 µM (inactive)

## Oc1ccc(C2CCN(c3ccnc4ccccc34)CC2)cc1O
[28]
  IC50: 1.3 µM (active)

## COC(=O)C1=C(C)N(Cc2ccc(C(F)(F)F)cc2)C(NCc2ccccc2C(F)(F)F)=NC1c1cccc(Cl)c1 (stereo not drawn)
[29]
  IC50: > 96.6 µM (inactive)

## Cc1ccc(C(C)C)c(OCCn2c(S)nc3ccccc32)c1
[30]
  AC50: 22 µM (active)

## O=C1C(Nc2cccc(Br)c2)=C(N2CCCCC2)C(=O)c2ccccc21
[31]
  AC50: 19.7 µM (active)
[32]
  AC50: > 70 µM (inactive)
[33]
  AC50: 9.81 µM (active)

— ChEMBL document CHEMBL1201862, “PubChem BioAssay data set” (2004)
